Tests used:
[1] = biological target: T1, AMPK-s1 (α subunit- D148A) (Rattus norvegicus, UniProt P54645+P80385, D159A); experiment: SPR analysis, AMPK mutant s1; assay type: binding
T1 construct: His (N); made in house
Protocol: (§1) Mammalian AMPK subunits (His-α1, β1, and γ1) were cloned into a pET-3d vector, and protein expression and purification were similar to the literature.
(§2) SPR analysis was performed with a Biacore T200 instrument (GE Healthcare). Firstly, the purred His-tagged AMPK containing α1β1γ1 protein was captured onto an activated carboxymethylated 5 (CM5) chip using amine coupling to levels ranging from 4000 RU to 6000 RU. Secondly, GENI was dissolved in PBS-P buffer solution (0.05% (v/v) Tween 20 and PBS), and the concentration of GENI was 64 μM. Thirdly, the solution of GENI was diluted to 32 μM, 16 μM, 8 μM, 4 μM, 2 μM, 1 μM and 0.5 μM with PBS-P buffer solution. The sample was filtered by pumping through a […] membrane. A gradient concentration of GENI was injected at a flow rate of 30 μL/min in a running buffer (0.05% (v/v) Tween 20 and PBS). The data were analyzed with Biacore evaluation software (T200 version 2.0) and fitted to the 1:1 Langmuir binding model, and the kinetic parameters were derived.
The non-covalent interaction between drugs and proteins is an important way to exert drug efficacy, and its mode of action and binding affinity usually determine the utilization and biological activity of drugs. AMPK is a heterotrimer complex consisting of an α subunit containing the kinase domain and two regulatory subunits (β- and γ-). […]

[2] = biological target: T2, AMPK-s6 (γ subunit- K309A) (Rattus norvegicus, UniProt P54645+P80385, K309A); experiment: SPR analysis, AMPK mutant s6; assay type: binding
T2 construct: His (N); made in house
Protocol: as §1, §2
The non-covalent interaction between drugs and proteins is an important way to exert drug efficacy, and its mode of action and binding affinity usually determine the utilization and biological activity of drugs. AMPK is a heterotrimer complex consisting of an α subunit containing the kinase domain and two regulatory subunits (β- and γ-). Different action sites have varied or even opposite pharmacological effects. The molecular mechanism of interaction between the protein and molecule should be investigated thoroughly. After co-incubation of GENI and AMPK, LC-MS/MS measurements were performed to predict the binding sites. As shown in Extended Data Figure S2, ASP148, ASP157 and ASP166 of the AMPK α subunits and LYS148, ASP156, LYS309, and ASP316 of the AMPK γ subunit were possible to the binding sites of GENI. […] Thus, all of these seven sites affected the binding of GENI and AMPK to varying degrees, and they were located in the C lobe kinase domain of the AMPK α subunit, and the CBS2 and CBS4 domain of the AMPK γ subunit, respectively.

PC12 cells [3] = experiment: Autophagy flow assay (CYTO-ID) in PC12 cells; assay type: cell-based
Protocol: The experiment was carried out according to the instructions of the CYTO-ID autophagy detection kit (Enzo Biochem, New York, NY, USA). In brief, we seeded 7.5 × 10^4 PC12 cells in each well of a 24-well plate using the cell slide method. The cells were incubated for 24 h at 37 °C in a 5% CO2 incubator. The experiment was divided into control (0.5% DMSO), positive control rapamycin (Rap 500 nM + chloroquine (CQ)), GENI treated-group (10 μM GENI + 10 μM CQ), 3-MA inhibitor group (5 mM 3-MA + 10 μM CQ) and GENI + 3MA group (5 mM 3-MA + 10 μM GENI + 10 μM CQ). The optimum concentration of 3MA inhibitor was referenced in the other report. At first, 0.5 mL of serum-free DMEM (plus 1% dual anti-penicillin–streptomycin) containing 3-MA (5 mM) was used to replace the medium in two groups as well as 0.5 mL of serum-free DMEM was added in the other groups, respectively. After treating for 6 h, 0.5 mL of DMEM containing DMSO (0.5%), Rap (500 nM) + CQ (10 μM), GENI (10 μM) + CQ (10 μM), CQ (10 μM), and GENI (10 μM) + CQ (10 μM) was added into the corresponding group, respectively. After 18 h, we removed the medium and washed cells twice with 1× assay buffer containing 5% FBS. We then added CYTO-ID Green detection reagent and Hocchst 33342 nuclear stain to the cells, which were incubated at 37 °C for 45 min. After three washes with 1× assay buffer, we fixed cells with 4% paraformaldehyde for 20 min. After three washes with 1× assay buffer, we observed the cells with an upright two-photon confocal microscope (Olympus FV1000BX-51, Tokyo, Japan).

PC12 cells [4] = experiment: Western blot of LC3 II/LC3 I in the autophagy flow assay; assay type: cell-based; settings: GENI group compared with the control group
Protocol: Western blot analysis for p-AMPK α, AMPK α, p-mTOR, mTOR, p-ULK1, ULK1, and LC3-I/II was conducted according to the information described in the materials and methods section of Supplementary Information.
1.3. Western blot analysis.
For PC12 cell samples, we seeded 2 × 10^6 PC12 cells in each 60 mm dish containing 5 mL of DMEM and incubated the dish for 24 h. For the dose-dependent experiment of GENI, GENI (1, 3 and 10 μM) was added to the dishes and incubated for a period of time (2 hours for p-AMPK α, AMPK α, 48 hours for p-mTOR, mTOR and p-ULK1, ULK1; 8 hours for LC3-I/II). Cells were then collected, lysed using RAPI lysis buffer and centrifuged. The supernatants of each group were used as protein samples. For the protein samples of autophagy flow assay, we seeded 2 × 10^6 PC12 cells in each 60 mm dish containing 5 mL of DMEM and incubated the dish for 24 h.
The GENI, rapamycin and inhibitors, such as chloroquine and 3-MA were added according to the method of autophagy flow assay. After treatment of 18 h, cells were then collected, lysed using RAPI lysis buffer and centrifuged. […] The protein concentration was measured with a BCA assay kit (Beijing Cowin Biotech Company, Beijing, China). […] Bands were quantitatively measured using ImageJ software (National Institutes of Health, Bethesda, MD, USA).

[5] = SPR, association rate, read-out: Ka

T2 sequence (P54645 13-559 limits assumed): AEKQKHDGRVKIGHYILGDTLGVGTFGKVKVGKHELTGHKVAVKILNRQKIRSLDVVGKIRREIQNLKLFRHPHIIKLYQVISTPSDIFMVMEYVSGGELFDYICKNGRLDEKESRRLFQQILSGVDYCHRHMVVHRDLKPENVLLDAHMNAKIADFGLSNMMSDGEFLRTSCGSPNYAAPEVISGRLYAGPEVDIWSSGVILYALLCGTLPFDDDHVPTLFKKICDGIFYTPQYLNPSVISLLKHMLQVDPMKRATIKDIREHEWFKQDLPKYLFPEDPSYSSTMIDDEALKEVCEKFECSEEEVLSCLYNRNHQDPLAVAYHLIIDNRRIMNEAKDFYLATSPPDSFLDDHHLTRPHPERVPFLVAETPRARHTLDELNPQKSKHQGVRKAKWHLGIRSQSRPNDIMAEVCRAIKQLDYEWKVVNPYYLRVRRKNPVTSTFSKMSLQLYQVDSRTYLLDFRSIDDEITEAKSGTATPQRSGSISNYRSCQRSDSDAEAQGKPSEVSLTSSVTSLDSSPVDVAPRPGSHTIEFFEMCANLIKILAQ
T2 sequence (P80386 whole entry partner): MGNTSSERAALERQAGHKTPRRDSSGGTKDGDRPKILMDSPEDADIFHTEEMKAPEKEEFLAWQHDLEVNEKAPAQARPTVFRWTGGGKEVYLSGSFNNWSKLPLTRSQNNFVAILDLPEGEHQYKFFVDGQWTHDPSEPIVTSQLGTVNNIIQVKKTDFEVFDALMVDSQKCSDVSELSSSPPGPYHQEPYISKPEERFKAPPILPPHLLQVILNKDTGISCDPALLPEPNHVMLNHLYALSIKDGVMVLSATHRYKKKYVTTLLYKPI
T2 sequence (P80385 whole entry K309A): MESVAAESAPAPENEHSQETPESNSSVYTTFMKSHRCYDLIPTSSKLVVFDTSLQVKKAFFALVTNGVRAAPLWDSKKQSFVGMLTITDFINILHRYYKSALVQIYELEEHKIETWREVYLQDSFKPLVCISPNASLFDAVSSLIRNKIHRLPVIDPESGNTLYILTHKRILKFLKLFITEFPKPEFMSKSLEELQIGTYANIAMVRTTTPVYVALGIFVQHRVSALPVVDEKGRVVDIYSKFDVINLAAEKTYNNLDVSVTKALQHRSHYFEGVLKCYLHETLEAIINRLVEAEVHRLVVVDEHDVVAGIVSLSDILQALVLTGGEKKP
T1 sequence (P54645 13-559 D159A limits assumed): as the sequence (P54645 13-559 limits assumed) above, with D147A counted along it
T1 sequence (P80386 whole entry partner): as the sequence (P80386 whole entry partner) above
T1 sequence (P80385 whole entry): as the sequence (P80385 whole entry K309A) above, with A309K counted along it

**Q.** Which “dose-dependent response in SPR” value ([1]; D148 replaced with A148) does the source give for `CC(C)CCOC(=O)C1=CO[C@@H](O[C@@H]2O[C@H](CO)[C@@H](O)[C@H](O)[C@H]2O)C2C(CO)=CCC12` (some centres unmarked) [GENI, Geniposidic 4-isoamyl ester] here?
**A.** No significant dose-dependent response

**Q.** And the kon [1, 5]?
**A.** 9360 M⁻¹ s⁻¹

**Q.** What about the Kd ([2]; SPR) of the same compound?
**A.** 6.21 µM

**Q.** What about the kon [2, 5] of the same compound?
**A.** 806 M⁻¹ s⁻¹

**Q.** And the “response (RU) in SPR” value ([2]; point mutation of K309, versus wild-type)?
**A.** significantly reduced

**Q.** And the “fluorescence intensity of autophagosomes” value (PC12 cells [3]; 10 μM GENI + 10 μM CQ, compared with the control group)?
**A.** significantly increased

**Q.** What about the “autophagy effect relative to positive control Rap at 500 nM” value (PC12 cells [3]; GENI at 10 μM) of the same compound?
**A.** comparable

**Q.** And the “LC3 II at the protein level” value (PC12 cells [4])?
**A.** significantly increased

Source: article PMC11763059, “GENI as an AMPK Activator Binds α and γ Subunits and Improves the Memory Dysfunction of Alzheimer’s Disease Mouse Models via Autophagy and Neuroprotection” (Antioxidants, 2025)
